± gives the standard deviation of the averaged measurements.
System: HCI-011.E2 (organoid from an ER-positive breast cancer xenograft)
Assay: CTG-3D luminescence at 96 h relative to day-0 seeding control (ratio to day 0); higher = more growth / less cytotoxicity; PDxO 3D drug screen, 96 h, CTG-3D normalised to day-0 seeding control.
Details: 10 µM; days in culture: 74

SMILES | CTG-3D luminescence at 96 h
CN(Cc1cnc2nc(N)nc(N)c2n1)c1ccc(C(=O)N[C@@H](CCC(=O)O)C(=O)O)cc1 [methotrexate] | 3.6
C=CCn1c(=O)c2cnc(Nc3ccc(N4CCN(C)CC4)cc3)nc2n1-c1cccc(C(C)(C)O)n1 [adavosertib] | 2.35
CC(C)(C(=O)NCC(F)(F)C(F)(F)F)C(=O)N[C@@H]1C(=O)Nc2ccccc2-c2ccccc21 | 2.5
C[C@@H]1COCCN1c1cc(C2([S@](C)(=N)=O)CC2)nc(-c2cc[nH]c3nccc2-3)n1 [ceralasertib] | 0.982
CCN1CCN(Cc2ccc(Nc3ncc(F)c(-c4cc(F)c5nc(C)n(C(C)C)c5c4)n3)nc2)CC1 [abemaciclib] | 1.72

Same assay, conditions: 100 µM

SMILES | CTG-3D luminescence at 96 h
COc1cccc2c1C(=O)c1c(O)c3c(c(O)c1C2=O)C[C@@](O)(C(=O)CO)C[C@@H]3O[C@H]1C[C@H](N)[C@H](O)[C@H](C)O1 [doxorubicin] | 0.0255 ± 0.022
O=C(O)C1(C(=O)O)CCC1.[NH2-].[NH2-].[Pt+2] [carboplatin] | 1.71 ± 0.52
NC(=O)Nc1cc(-c2cccc(F)c2)sc1C(=O)N[C@H]1CCCNC1 [AZD7762] | 0.00993 ± 0.0024
Nc1ccn([C@@H]2O[C@H](CO)[C@@H](O)C2(F)F)c(=O)n1 [gemcitabine] | 1.6 ± 0.28
CC1(C)CCC(c2ccc(Cl)cc2)=C(CN2CCN(c3ccc(C(=O)NS(=O)(=O)c4ccc(N[C@H](CCN5CCOCC5)CSc5ccccc5)c(S(=O)(=O)C(F)(F)F)c4)cc3)CC2)C1 [navitoclax] | 0.144 ± 0.028
CN(Cc1cnc2nc(N)nc(N)c2n1)c1ccc(C(=O)N[C@@H](CCC(=O)O)C(=O)O)cc1 [methotrexate] | 2.21 ± 0.71
C=CCn1c(=O)c2cnc(Nc3ccc(N4CCN(C)CC4)cc3)nc2n1-c1cccc(C(C)(C)O)n1 [adavosertib] | 1.51 ± 0.68
CC(C)(C(=O)NCC(F)(F)C(F)(F)F)C(=O)N[C@@H]1C(=O)Nc2ccccc2-c2ccccc21 | 1.76 ± 0.33
C[C@@H]1COCCN1c1cc(C2([S@](C)(=N)=O)CC2)nc(-c2cc[nH]c3nccc2-3)n1 [ceralasertib] | 0.326 ± 0.078
CCN1CCN(Cc2ccc(Nc3ncc(F)c(-c4cc(F)c5nc(C)n(C(C)C)c5c4)n3)nc2)CC1 [abemaciclib] | 0.00535 ± 0.0021

Same assay, conditions: 100 µM; days in culture: 74

SMILES | CTG-3D luminescence at 96 h
COc1cccc2c1C(=O)c1c(O)c3c(c(O)c1C2=O)C[C@@](O)(C(=O)CO)C[C@@H]3O[C@H]1C[C@H](N)[C@H](O)[C@H](C)O1 [doxorubicin] | 0.0309
O=C(O)C1(C(=O)O)CCC1.[NH2-].[NH2-].[Pt+2] [carboplatin] | 2.69
NC(=O)Nc1cc(-c2cccc(F)c2)sc1C(=O)N[C@H]1CCCNC1 [AZD7762] | 0.00724
Nc1ccn([C@@H]2O[C@H](CO)[C@@H](O)C2(F)F)c(=O)n1 [gemcitabine] | 2.12
CC1(C)CCC(c2ccc(Cl)cc2)=C(CN2CCN(c3ccc(C(=O)NS(=O)(=O)c4ccc(N[C@H](CCN5CCOCC5)CSc5ccccc5)c(S(=O)(=O)C(F)(F)F)c4)cc3)CC2)C1 [navitoclax] | 0.137
CN(Cc1cnc2nc(N)nc(N)c2n1)c1ccc(C(=O)N[C@@H](CCC(=O)O)C(=O)O)cc1 [methotrexate] | 2.24
C=CCn1c(=O)c2cnc(Nc3ccc(N4CCN(C)CC4)cc3)nc2n1-c1cccc(C(C)(C)O)n1 [adavosertib] | 1.38
CC(C)(C(=O)NCC(F)(F)C(F)(F)F)C(=O)N[C@@H]1C(=O)Nc2ccccc2-c2ccccc21 | 1.76
C[C@@H]1COCCN1c1cc(C2([S@](C)(=N)=O)CC2)nc(-c2cc[nH]c3nccc2-3)n1 [ceralasertib] | 0.237
CCN1CCN(Cc2ccc(Nc3ncc(F)c(-c4cc(F)c5nc(C)n(C(C)C)c5c4)n3)nc2)CC1 [abemaciclib] | 0.00196

Same assay, conditions: 625 fM

SMILES | CTG-3D luminescence at 96 h
COc1cccc2c1C(=O)c1c(O)c3c(c(O)c1C2=O)C[C@@](O)(C(=O)CO)C[C@@H]3O[C@H]1C[C@H](N)[C@H](O)[C@H](C)O1 [doxorubicin] | 1.6 ± 0.29
O=C(O)C1(C(=O)O)CCC1.[NH2-].[NH2-].[Pt+2] [carboplatin] | 1.69 ± 0.26
NC(=O)Nc1cc(-c2cccc(F)c2)sc1C(=O)N[C@H]1CCCNC1 [AZD7762] | 1.71 ± 0.31
Nc1ccn([C@@H]2O[C@H](CO)[C@@H](O)C2(F)F)c(=O)n1 [gemcitabine] | 1.9 ± 0.5
CC1(C)CCC(c2ccc(Cl)cc2)=C(CN2CCN(c3ccc(C(=O)NS(=O)(=O)c4ccc(N[C@H](CCN5CCOCC5)CSc5ccccc5)c(S(=O)(=O)C(F)(F)F)c4)cc3)CC2)C1 [navitoclax] | 1.8 ± 0.25
CN(Cc1cnc2nc(N)nc(N)c2n1)c1ccc(C(=O)N[C@@H](CCC(=O)O)C(=O)O)cc1 [methotrexate] | 1.59 ± 0.47
C=CCn1c(=O)c2cnc(Nc3ccc(N4CCN(C)CC4)cc3)nc2n1-c1cccc(C(C)(C)O)n1 [adavosertib] | 1.62 ± 0.45
CC(C)(C(=O)NCC(F)(F)C(F)(F)F)C(=O)N[C@@H]1C(=O)Nc2ccccc2-c2ccccc21 | 1.94 ± 0.38
C[C@@H]1COCCN1c1cc(C2([S@](C)(=N)=O)CC2)nc(-c2cc[nH]c3nccc2-3)n1 [ceralasertib] | 1.89 ± 0.75
CCN1CCN(Cc2ccc(Nc3ncc(F)c(-c4cc(F)c5nc(C)n(C(C)C)c5c4)n3)nc2)CC1 [abemaciclib] | 1.6 ± 0.63

Same assay, conditions: 625 fM; days in culture: 74

SMILES | CTG-3D luminescence at 96 h
COc1cccc2c1C(=O)c1c(O)c3c(c(O)c1C2=O)C[C@@](O)(C(=O)CO)C[C@@H]3O[C@H]1C[C@H](N)[C@H](O)[C@H](C)O1 [doxorubicin] | 2.14
O=C(O)C1(C(=O)O)CCC1.[NH2-].[NH2-].[Pt+2] [carboplatin] | 1.99
NC(=O)Nc1cc(-c2cccc(F)c2)sc1C(=O)N[C@H]1CCCNC1 [AZD7762] | 1.92
Nc1ccn([C@@H]2O[C@H](CO)[C@@H](O)C2(F)F)c(=O)n1 [gemcitabine] | 2.22
CC1(C)CCC(c2ccc(Cl)cc2)=C(CN2CCN(c3ccc(C(=O)NS(=O)(=O)c4ccc(N[C@H](CCN5CCOCC5)CSc5ccccc5)c(S(=O)(=O)C(F)(F)F)c4)cc3)CC2)C1 [navitoclax] | 1.84
CN(Cc1cnc2nc(N)nc(N)c2n1)c1ccc(C(=O)N[C@@H](CCC(=O)O)C(=O)O)cc1 [methotrexate] | 2.17
C=CCn1c(=O)c2cnc(Nc3ccc(N4CCN(C)CC4)cc3)nc2n1-c1cccc(C(C)(C)O)n1 [adavosertib] | 2.46
CC(C)(C(=O)NCC(F)(F)C(F)(F)F)C(=O)N[C@@H]1C(=O)Nc2ccccc2-c2ccccc21 | 1.73
C[C@@H]1COCCN1c1cc(C2([S@](C)(=N)=O)CC2)nc(-c2cc[nH]c3nccc2-3)n1 [ceralasertib] | 1.86
CCN1CCN(Cc2ccc(Nc3ncc(F)c(-c4cc(F)c5nc(C)n(C(C)C)c5c4)n3)nc2)CC1 [abemaciclib] | 2.79

System: HCI-019 (organoid from a triple-negative breast cancer xenograft)
Assay: as above
Details: 12.5 pM; days in culture: 110

SMILES | CTG-3D luminescence at 96 h
COc1cccc2c1C(=O)c1c(O)c3c(c(O)c1C2=O)C[C@@](O)(C(=O)CO)C[C@@H]3O[C@H]1C[C@H](N)[C@H](O)[C@H](C)O1 [doxorubicin] | 1.69
O=C(O)C1(C(=O)O)CCC1.[NH2-].[NH2-].[Pt+2] [carboplatin] | 1.39
NC(=O)Nc1cc(-c2cccc(F)c2)sc1C(=O)N[C@H]1CCCNC1 [AZD7762] | 2.48
Nc1ccn([C@@H]2O[C@H](CO)[C@@H](O)C2(F)F)c(=O)n1 [gemcitabine] | 1.7
CC1(C)CCC(c2ccc(Cl)cc2)=C(CN2CCN(c3ccc(C(=O)NS(=O)(=O)c4ccc(N[C@H](CCN5CCOCC5)CSc5ccccc5)c(S(=O)(=O)C(F)(F)F)c4)cc3)CC2)C1 [navitoclax] | 1.8
CN(Cc1cnc2nc(N)nc(N)c2n1)c1ccc(C(=O)N[C@@H](CCC(=O)O)C(=O)O)cc1 [methotrexate] | 2.05
C=CCn1c(=O)c2cnc(Nc3ccc(N4CCN(C)CC4)cc3)nc2n1-c1cccc(C(C)(C)O)n1 [adavosertib] | 2.05
CC(C)(C(=O)NCC(F)(F)C(F)(F)F)C(=O)N[C@@H]1C(=O)Nc2ccccc2-c2ccccc21 | 1.83
C[C@@H]1COCCN1c1cc(C2([S@](C)(=N)=O)CC2)nc(-c2cc[nH]c3nccc2-3)n1 [ceralasertib] | 1.9
CCN1CCN(Cc2ccc(Nc3ncc(F)c(-c4cc(F)c5nc(C)n(C(C)C)c5c4)n3)nc2)CC1 [abemaciclib] | 2.26

Same assay, conditions: 12.5 pM; days in culture: 131

SMILES | CTG-3D luminescence at 96 h
COc1cccc2c1C(=O)c1c(O)c3c(c(O)c1C2=O)C[C@@](O)(C(=O)CO)C[C@@H]3O[C@H]1C[C@H](N)[C@H](O)[C@H](C)O1 [doxorubicin] | 3.03
O=C(O)C1(C(=O)O)CCC1.[NH2-].[NH2-].[Pt+2] [carboplatin] | 2.21
NC(=O)Nc1cc(-c2cccc(F)c2)sc1C(=O)N[C@H]1CCCNC1 [AZD7762] | 2.56
Nc1ccn([C@@H]2O[C@H](CO)[C@@H](O)C2(F)F)c(=O)n1 [gemcitabine] | 2.42
CC1(C)CCC(c2ccc(Cl)cc2)=C(CN2CCN(c3ccc(C(=O)NS(=O)(=O)c4ccc(N[C@H](CCN5CCOCC5)CSc5ccccc5)c(S(=O)(=O)C(F)(F)F)c4)cc3)CC2)C1 [navitoclax] | 2.39
CN(Cc1cnc2nc(N)nc(N)c2n1)c1ccc(C(=O)N[C@@H](CCC(=O)O)C(=O)O)cc1 [methotrexate] | 2.79
C=CCn1c(=O)c2cnc(Nc3ccc(N4CCN(C)CC4)cc3)nc2n1-c1cccc(C(C)(C)O)n1 [adavosertib] | 2.63
CC(C)(C(=O)NCC(F)(F)C(F)(F)F)C(=O)N[C@@H]1C(=O)Nc2ccccc2-c2ccccc21 | 2.53
C[C@@H]1COCCN1c1cc(C2([S@](C)(=N)=O)CC2)nc(-c2cc[nH]c3nccc2-3)n1 [ceralasertib] | 2.22
CCN1CCN(Cc2ccc(Nc3ncc(F)c(-c4cc(F)c5nc(C)n(C(C)C)c5c4)n3)nc2)CC1 [abemaciclib] | 2.45

Same assay, conditions: 12.5 pM; days in culture: 152

SMILES | CTG-3D luminescence at 96 h
COc1cccc2c1C(=O)c1c(O)c3c(c(O)c1C2=O)C[C@@](O)(C(=O)CO)C[C@@H]3O[C@H]1C[C@H](N)[C@H](O)[C@H](C)O1 [doxorubicin] | 3.43
O=C(O)C1(C(=O)O)CCC1.[NH2-].[NH2-].[Pt+2] [carboplatin] | 2.94
NC(=O)Nc1cc(-c2cccc(F)c2)sc1C(=O)N[C@H]1CCCNC1 [AZD7762] | 1.82
Nc1ccn([C@@H]2O[C@H](CO)[C@@H](O)C2(F)F)c(=O)n1 [gemcitabine] | 2.8
CC1(C)CCC(c2ccc(Cl)cc2)=C(CN2CCN(c3ccc(C(=O)NS(=O)(=O)c4ccc(N[C@H](CCN5CCOCC5)CSc5ccccc5)c(S(=O)(=O)C(F)(F)F)c4)cc3)CC2)C1 [navitoclax] | 2.86
CN(Cc1cnc2nc(N)nc(N)c2n1)c1ccc(C(=O)N[C@@H](CCC(=O)O)C(=O)O)cc1 [methotrexate] | 2.67
C=CCn1c(=O)c2cnc(Nc3ccc(N4CCN(C)CC4)cc3)nc2n1-c1cccc(C(C)(C)O)n1 [adavosertib] | 2.43
CC(C)(C(=O)NCC(F)(F)C(F)(F)F)C(=O)N[C@@H]1C(=O)Nc2ccccc2-c2ccccc21 | 3.04
C[C@@H]1COCCN1c1cc(C2([S@](C)(=N)=O)CC2)nc(-c2cc[nH]c3nccc2-3)n1 [ceralasertib] | 2.6
CCN1CCN(Cc2ccc(Nc3ncc(F)c(-c4cc(F)c5nc(C)n(C(C)C)c5c4)n3)nc2)CC1 [abemaciclib] | 3.44

Source: the supplement of paper PMC8882468
